Results taken from US6872727B1, “Polycyclic pyrimidine -2,4(1H,3H)-diones with functionalized alkyl residues at the 1- and/or 3-position(s); methods for their synthesis and pharmaceutical preparation” (Privates Institut fur Biomedizinische Forschung und Beratung, priority 1999, dated 2005).

Assays:
[1] = molecular target: T1, human matrix metalloproteinase-2 (MMP-2; gelatinase A) (Homo sapiens, UniProt P08253); test: Inhibition of human matrix metalloproteinase-2 (gelatinase A); assay type: biochemical; conditions: trypsin-activated MMP-2 from human dermal fibroblast culture supernatant; read-out: MMP-2 (50% inhibition)
T1 construct: to prepare the enzymatically active mature form of the enzyme; endogenous in cells; host or cells: human dermal fibroblasts (secreted into culture supernatant)
T1 sequence (P08253 110-660): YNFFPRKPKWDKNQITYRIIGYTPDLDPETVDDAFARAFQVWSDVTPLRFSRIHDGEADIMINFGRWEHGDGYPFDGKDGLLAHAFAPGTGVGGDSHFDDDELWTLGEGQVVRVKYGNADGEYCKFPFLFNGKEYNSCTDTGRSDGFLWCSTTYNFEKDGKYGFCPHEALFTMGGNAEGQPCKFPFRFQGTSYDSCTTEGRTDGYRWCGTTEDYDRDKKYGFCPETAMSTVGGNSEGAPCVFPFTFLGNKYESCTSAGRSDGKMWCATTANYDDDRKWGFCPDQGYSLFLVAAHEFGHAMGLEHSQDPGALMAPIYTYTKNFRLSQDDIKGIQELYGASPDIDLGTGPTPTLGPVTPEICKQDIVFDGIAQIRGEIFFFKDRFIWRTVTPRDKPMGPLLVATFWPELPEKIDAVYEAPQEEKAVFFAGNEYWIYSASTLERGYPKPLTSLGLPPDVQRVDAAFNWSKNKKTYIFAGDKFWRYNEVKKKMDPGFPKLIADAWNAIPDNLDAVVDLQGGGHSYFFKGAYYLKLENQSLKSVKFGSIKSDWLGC
From the text: MMP-2 is easily prepared by standard procedures from the culture medium of cultivated human fibroblasts in reasonable quantities, and is therefore readily available. […] A screening system based on the measurement of the proteolytic activity of MMP-2 was developed to analyse the inhibitory effects of the various inhibitors described in Table 1.
To this end, human dermal fibroblasts were obtained and maintained in culture using standard methods. The cell-free culture supernatant containing the secreted pro-MMP-2 was treated with trypsin. The trypsin was inactivated with the specific active-site serine proteinase inhibitor Nα-p-tosyl-L-lysine-chloromethylketone (TLCK), and the active MMP-2 was partially purified by gel filtration on Sepharose 4B. The isolated MMP-2 was identified and characterized by the use of a commercially available immunoassay.
A simple nonradioactive assay was developed to measure MMP-2 activity using gelatin as a substrate that allows both a large number of samples to be analysed in parallel and to generate kinetic data. Partially purified MMP-2 was incubated with a suitable dilution of gelatin under standardized conditions (time, buffer, pH, temperature, inhibitor, additives), and uncleaved gelatin was separated from degradation products by suction filtration through a nitrocellulose filter. High-molecular-weight gelatin is thereby bound to the nitrocellulose filter, and the low-molecular-weight gelatin-derived peptides pass through it. The nitrocellulose-bound gelatin can be stained with Ponceau S or Commassie Brilliant Blue protein stains, and the degree of staining quantified densitometrically using a commercially available electrophoresis gel documentation system supported by dedicated analytical software. The nitrocellulose filtration is conducted using a commercially available dot- or slot-blotting apparatus.
The gelatinase assay described here has been validated by comparison with results obtained with an established collagenase assay using radioactive or fluorescently labeled collagen as substrate.
(§1) The enzymatic cleavage of commercially available synthetic internally quenched fluorigenic peptide substrates such as 7-methylcoumarin-4-yl-acetyl-prolyleucyl-glycyl-leucyl-(dinitrophenyl-L-α,β-diaminopropionyl)-alanyl-arginylamide (Mca-Pro-Leu-Gly-Leu-Dap(Dnp)-Ala-Arg-NH2) at the scissile -Gly-Leu-peptide bond separates the fluorescent Mca group from the dinitrophenol quencher, resulting in a strong linear increase in fluorescence intensity that can be readily measured in a fluorimeter (λexitation328 nm, λemission 393 nm) over the first few minutes of the reaction. The specificity of the assay for matrix metalloproteinases is provided by the type I collagen-derived sequence -Pro-Leu-Gly-Leu- in the synthetic substrate, as well as by the incubation conditions. To test the efficacy of the synthetic collagenase/MMP inhibitors, the residual enzymatic activity remaining after an incubation of enzyme plus different amounts of inhibitor is measured at a fixed enzyme and substrate concentration. For each inhibitor, three test series at different fixed substrate concentrations were carried out. From the time-dependent increase in fluorescence intensity measured, the velocity (v) of the enzymatic activity can be calculated as increase in arbitrary fluorescence intensity units per minute. The inhibition constant Ki is calculated graphically by the method of Dixon (1953) by plotting the reciprocal of the reaction velocity 1/v on the ordinate, and the inhibitor concentration on the abscissa. The x-intercept of the linear plot is defined as minus K1 value.
1984 μl assay buffer (100 mM Tris-HCl pH 7,5, 100 mM NaCl, 10 mM CaCl2, 0,05% Brij 35) • 2 μl inhibitor dissolved in DMSO, or DMSO alone as a solvent control • 4 μl enzyme (MMP-2, MMP-9, or the catalytic domain of MMP-8) • 10 μl Mca-Pro-Leu-Gly-Leu-Dap(Dnp)-Ala-Arg-NH2 in DMSO Method • 1. […]

[2] = molecular target: T2, catalytic domain of human matrix metalloproteinase-8 (MMP-8; neutrophil collagenase) (Homo sapiens, UniProt P22894); test: Inhibition of catalytic domain of human MMP-8, fluorimetric assay, Dixon plot; assay type: biochemical; conditions: recombinant catalytic domain, Mca-Pro-Leu-Gly-Leu-Dap(Dnp)-Ala-Arg-NH2 substrate
T2 construct: express heterologously only the catalytic domain, rather than the entire MMP-8, in Escherichia coli; made in house; host or cells: Escherichia coli
From the text: The catalytic domain of MMP-8 was chosen as a further test enzyme because of its high stability and constitutive activity, obviating the need for enzymatic or chemical activation, which is a well-known source of error, e.g. the commonly used organomercurial compounds used to activate pro-MMPs may interfere in subsequent assays or affect the activity of the enzyme, leading to erroneous interpretation of results. The cloning strategy was designed to express heterologously only the catalytic domain, rather than the entire MMP-8, in Escherichia coli. With the so-constructed expressed catalytic domain, we obtained a stable enzymatically active, highly pure enzyme that is well suited for routine investigation of the efficacy of the synthetic inhibitors and provides highly reproducible test results.
The cloning and expression of the recombinant catalytic domain of MMP-8 follows the protocol developed by Schnierer et al. (Schnierer, S., Kleine, T., Gote, T., Hilleman, A., Knäuper, V., and Tschesche, H., 1993, The recombinant catalytic domain of human neutrophil collagenase lacks type I collagen substrate specificity, Biochem. Biophys. Res. Commun. 191, 319-326).
as §1
1984 μl assay buffer (100 mM Tris-HCl pH 7,5, 100 mM NaCl, 10 mM CaCl2, 0,05% Brij 35) • 2 μl inhibitor dissolved in DMSO, or DMSO alone as a solvent control • 4 μl enzyme (MMP-2, MMP-9, or the catalytic domain of MMP-8) • 10 μl Mca-Pro-Leu-Gly-Leu-Dap(Dnp)-Ala-Arg-NH2 in DMSO Method • 1. Incubate buffer, enzyme, and inhibitor for 5 min at room temperature, with stirring. • 2. Start the reaction by adding 10 μl substrate in DMSO • 3. Record the increase in fluorescence intensity over 2 min. Confirmation of the Inhibitory Activity by Protein Zymographic Analysis

T2 sequence (P22894 100-262 limits assumed): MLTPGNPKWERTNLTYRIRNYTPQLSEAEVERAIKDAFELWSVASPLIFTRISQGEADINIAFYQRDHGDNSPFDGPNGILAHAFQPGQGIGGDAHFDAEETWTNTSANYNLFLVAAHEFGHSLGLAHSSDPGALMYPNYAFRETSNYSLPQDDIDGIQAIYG

Structure (SMILES) | IC50 [1] [µM] | Ki [2] [µM] | MMP-8 (Ki value) [2]
CC(S)CCn1c(=O)[nH]c(=O)c2ccccc21 (racemic) [Example 3, (R,S)-1-(3-mercaptobut-1-yl)-chinazolin-2,4(1H,3H)-dione] | 13.2 | 38.5 | –
CC(CCS)n1c(=O)[nH]c2ccccc2c1=O (racemic) [Example 18, (R,S)-3-[3-(1-methyl)-mercaptopropyl]-chinazolin-2,4(1H,3H)-dione] | 8.3 | 6 | –
O=c1[nH]c(=O)n(CCCS)c2ccccc12 [Example 4, 1-(3-mercaptopropyl)-chinazolin-2,4(1H,3H)-dione] | 5 | 7 | –
O=c1[nH]c(=O)n(CCS)c2ccccc12 [Example 5, 1-(2-mercaptoethyl)-chinazolin-2,4(1H,3H)-dione] | 61.3 | 70 | –
Cn1c(=O)c2ccccc2n(CCCS)c1=O [Example 7, 1-(3-mercaptoprop-1-yl)-3-methyl-chinazolin-2,4(1H,3H)-dione] | 6 | – | negative
O=c1[nH]c2ccccc2c(=O)n1CCCCS [Example 12, 3-(4-mercaptobut-1-yl)-chinazolin-2,4(1H,3H)-dione] | 8.3 | 11 | –
Cn1c(=O)c2sccc2n(CCCS)c1=O [Example 14, 1-(3-mercaptoprop-1-yl)-3-methyl-thieno(3,2-d)-pyrimidin-2,4(1H,3H)-dione] | 20 | – | negative
Cn1c(=O)c2sccc2n(CCS)c1=O [Example 17, 1-(2-mercaptoethyl)-3-methyl-thieno[3,2-d]-pyrimidine-2,4(1H,3H)-dione] | 20 | – | negative
